Columns and labels:
Assay in all cases: KinomeScan profiling
Type in all cases: binding
[1] = target: CSNK1G2 (Homo sapiens, UniProt P78368); conditions: CSNK1G2, 1 μM; read-out: % control
Summary of the method: (§1)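 At 1 μM in DMSO, compounds are run through a broad 468-member kinase panel. The luminescent read-out is normalised so that vehicle gives 100% and a positive control gives 0%; any kinase falling below 35% is treated as a target.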

[2] = target: CSNK2A1 (Homo sapiens, UniProt P68400); conditions: CSNK2A1, 1 μM; read-out: % control
Sequence of CSNK2A1 (P68400 whole entry): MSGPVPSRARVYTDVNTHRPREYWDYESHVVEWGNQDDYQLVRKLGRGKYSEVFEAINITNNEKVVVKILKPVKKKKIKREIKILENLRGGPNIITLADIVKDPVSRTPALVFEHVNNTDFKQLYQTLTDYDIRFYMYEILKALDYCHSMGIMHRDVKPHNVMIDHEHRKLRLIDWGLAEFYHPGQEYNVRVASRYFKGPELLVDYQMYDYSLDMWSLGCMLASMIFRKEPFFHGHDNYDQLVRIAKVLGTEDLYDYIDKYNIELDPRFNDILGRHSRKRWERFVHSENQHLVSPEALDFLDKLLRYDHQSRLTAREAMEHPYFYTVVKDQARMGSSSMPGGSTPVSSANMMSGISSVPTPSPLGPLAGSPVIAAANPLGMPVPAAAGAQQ
Summary of the method: as §1

[3] = target: T1, GRK2 (Homo sapiens, UniProt P25098); conditions: GRK2, 1 μM; read-out: % control
T1 sequence (P25098 1-689): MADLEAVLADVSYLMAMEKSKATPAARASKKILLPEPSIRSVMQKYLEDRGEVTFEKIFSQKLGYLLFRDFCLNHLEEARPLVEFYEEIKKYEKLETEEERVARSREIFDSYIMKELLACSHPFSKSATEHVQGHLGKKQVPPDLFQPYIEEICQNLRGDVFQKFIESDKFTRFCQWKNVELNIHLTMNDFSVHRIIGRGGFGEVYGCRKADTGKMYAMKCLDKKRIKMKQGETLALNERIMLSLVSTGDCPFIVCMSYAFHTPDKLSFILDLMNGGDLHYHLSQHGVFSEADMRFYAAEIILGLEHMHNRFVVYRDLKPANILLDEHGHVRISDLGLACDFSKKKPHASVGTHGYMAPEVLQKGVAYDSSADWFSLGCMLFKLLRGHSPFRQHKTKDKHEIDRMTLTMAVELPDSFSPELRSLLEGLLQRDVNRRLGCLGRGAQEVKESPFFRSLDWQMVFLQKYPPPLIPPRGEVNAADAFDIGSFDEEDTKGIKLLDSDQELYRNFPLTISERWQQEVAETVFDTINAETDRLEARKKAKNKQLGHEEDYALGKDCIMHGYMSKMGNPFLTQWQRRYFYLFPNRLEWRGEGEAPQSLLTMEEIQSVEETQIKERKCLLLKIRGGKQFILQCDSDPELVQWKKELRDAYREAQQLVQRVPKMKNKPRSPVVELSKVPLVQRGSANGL
Summary of the method: as §1

[4] = target: T2, PIK3C2G (Homo sapiens, UniProt O75747); conditions: read-out: % control
T2 construct: purchased KinomeScan® (panel service)
T2 sequence (O75747 1-1486): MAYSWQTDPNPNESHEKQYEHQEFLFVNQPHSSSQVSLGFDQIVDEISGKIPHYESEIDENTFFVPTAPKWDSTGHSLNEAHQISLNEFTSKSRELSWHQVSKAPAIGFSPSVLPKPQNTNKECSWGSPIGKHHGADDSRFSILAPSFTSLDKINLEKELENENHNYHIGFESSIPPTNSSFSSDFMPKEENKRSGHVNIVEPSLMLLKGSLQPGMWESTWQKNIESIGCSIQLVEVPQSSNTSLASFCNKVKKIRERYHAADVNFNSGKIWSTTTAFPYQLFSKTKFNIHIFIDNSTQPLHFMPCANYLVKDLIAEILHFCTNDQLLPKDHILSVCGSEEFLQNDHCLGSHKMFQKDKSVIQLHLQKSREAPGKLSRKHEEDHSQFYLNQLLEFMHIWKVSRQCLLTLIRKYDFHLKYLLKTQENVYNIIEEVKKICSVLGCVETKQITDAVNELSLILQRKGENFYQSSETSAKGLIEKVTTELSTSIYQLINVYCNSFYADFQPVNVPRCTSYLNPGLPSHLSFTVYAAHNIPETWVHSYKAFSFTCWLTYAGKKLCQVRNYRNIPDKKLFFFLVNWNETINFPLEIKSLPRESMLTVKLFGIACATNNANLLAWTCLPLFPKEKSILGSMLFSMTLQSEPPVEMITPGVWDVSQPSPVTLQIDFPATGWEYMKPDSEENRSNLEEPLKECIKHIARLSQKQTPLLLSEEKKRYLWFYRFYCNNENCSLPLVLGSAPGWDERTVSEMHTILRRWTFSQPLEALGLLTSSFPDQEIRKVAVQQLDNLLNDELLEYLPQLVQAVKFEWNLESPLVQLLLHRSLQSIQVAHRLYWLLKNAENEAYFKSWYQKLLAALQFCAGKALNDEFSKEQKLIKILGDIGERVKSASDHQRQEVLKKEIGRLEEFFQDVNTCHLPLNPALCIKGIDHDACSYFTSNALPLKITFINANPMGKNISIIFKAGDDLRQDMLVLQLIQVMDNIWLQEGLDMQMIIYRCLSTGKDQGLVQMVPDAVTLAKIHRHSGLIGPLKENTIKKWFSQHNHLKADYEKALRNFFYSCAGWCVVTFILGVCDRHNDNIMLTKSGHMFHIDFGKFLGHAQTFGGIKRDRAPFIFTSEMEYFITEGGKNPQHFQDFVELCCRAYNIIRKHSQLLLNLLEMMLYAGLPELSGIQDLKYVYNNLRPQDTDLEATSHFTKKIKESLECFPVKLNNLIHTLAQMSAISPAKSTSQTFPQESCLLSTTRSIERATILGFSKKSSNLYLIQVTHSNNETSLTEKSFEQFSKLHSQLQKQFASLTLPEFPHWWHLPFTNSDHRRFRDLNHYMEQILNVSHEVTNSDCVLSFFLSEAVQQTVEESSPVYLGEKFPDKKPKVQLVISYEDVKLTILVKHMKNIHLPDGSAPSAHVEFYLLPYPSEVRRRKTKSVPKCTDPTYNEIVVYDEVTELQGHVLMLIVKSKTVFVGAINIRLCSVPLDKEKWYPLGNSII
Summary of the method: as §1

[5] = target: T3, TSSK1B (Homo sapiens, UniProt Q9BXA7); conditions: read-out: % control
T3 sequence (Q9BXA7 1-367): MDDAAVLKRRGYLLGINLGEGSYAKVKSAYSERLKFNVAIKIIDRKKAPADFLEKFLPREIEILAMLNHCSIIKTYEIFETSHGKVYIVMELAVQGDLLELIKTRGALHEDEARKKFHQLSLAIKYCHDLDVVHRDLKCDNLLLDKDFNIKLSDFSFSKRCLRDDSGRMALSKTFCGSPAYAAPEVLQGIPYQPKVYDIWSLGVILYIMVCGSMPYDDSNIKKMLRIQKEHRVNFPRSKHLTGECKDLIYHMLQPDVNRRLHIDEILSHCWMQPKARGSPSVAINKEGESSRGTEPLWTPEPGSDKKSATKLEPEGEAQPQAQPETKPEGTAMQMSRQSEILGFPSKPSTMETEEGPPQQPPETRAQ
Summary of the method: as §1

Sequence of CSNK1G2 (P78368 whole entry): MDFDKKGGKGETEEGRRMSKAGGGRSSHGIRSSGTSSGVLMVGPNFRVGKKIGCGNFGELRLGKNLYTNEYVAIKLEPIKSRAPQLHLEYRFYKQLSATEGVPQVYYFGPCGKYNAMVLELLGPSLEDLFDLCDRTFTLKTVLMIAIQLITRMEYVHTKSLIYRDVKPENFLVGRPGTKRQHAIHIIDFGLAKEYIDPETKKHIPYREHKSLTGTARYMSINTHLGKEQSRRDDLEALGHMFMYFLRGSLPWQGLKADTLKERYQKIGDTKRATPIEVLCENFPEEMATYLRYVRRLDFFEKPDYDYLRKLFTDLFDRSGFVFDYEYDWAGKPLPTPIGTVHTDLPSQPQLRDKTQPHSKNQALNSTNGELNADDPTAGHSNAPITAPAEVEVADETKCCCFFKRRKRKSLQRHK

SMILES | remaining binding at 1 µM [1] | remaining binding at 1 µM [2] | remaining binding at 1 µM [3] | remaining binding at 1 µM [4] | remaining binding at 1 µM [5]
CNc1c(-c2cnn([C@H]3CCN(C(C)=O)C[C@@H]3F)c2)cnc2[nH]cc(Cl)c12 [Compound 77, 1-((3S,4S)-4-(4-(3-chloro-4-(methylamino)-1H-pyrrolo[2,3-b]pyridin-5-yl)-1H-pyrazol-1-yl)-3-fluoropiperidin-1-yl)ethan-1-one] | 81% | 75% | 93% | 100% | 99%
O=C(c1ccc(-c2cnc3[nH]cc(Cl)c3c2NC2CCCC2)cc1)N1CCC(N2CCOCC2)CC1 [Compound 101, (4-(3-chloro-4-(cyclopentylamino)-1H-pyrrolo[2,3-b]pyridin-5-yl)phenyl)(4-morpholinopiperidin-1-yl)methanone] | 73% | 100% | 100% | 92% | 41%
CNc1c(-c2ccc(C(=O)N3CCC(N4CCOCC4)CC3)cc2)cnc2[nH]cc(Cl)c12 [Compound 96, (4-(3-chloro-4-(methylamino)-1H-pyrrolo[2,3-b]pyridin-5-yl)phenyl)(4-morpholinopiperidin-1-yl)methanone] | 93% | 72% | 94% | 94% | 100%

Source: patent US12275731B2, “Azaindole inhibitors of wild-type and mutant forms of LRRK2” (DANA-FARBER CANCER INSTITUTE, INC., priority 2018, dated 2025)
